According to patent publication US8541379B2 (Ajinomoto Co., Inc., priority 2009, dated 2013):
pEC50: −log10 of the molar value. Starred links: 1 amine or outer side, 2 acyl side, 3 side chain; linkers in the order of their positions; H or OH if unused. Non-standard residues stand in square brackets, D forms with d. No end group written: not given here. γGlu = O=C(O)[C@H](CCC(=O)[*:2])N[*:1]

Tests used:
human CaSR = biological target: T1, human CaSR (Homo sapiens, UniProt P41180, E1011Q); assay: Evaluation of CaSR agonist activity (Ca2+ fluorescence, hCaSR-transfected 293E cells); format: cell-based; details: 293E cells transfected with hCaSR/pcDNA3.1, Calcium 4 fluorescence, FLEX Station
T1 construct: expressed in transfected cells; host or cells: 293E cells (EBNA1-expressing HEK293, ATCC CRL-10852), transient transfection with Fugene6
T1 sequence (P41180 20-1078 E1011Q): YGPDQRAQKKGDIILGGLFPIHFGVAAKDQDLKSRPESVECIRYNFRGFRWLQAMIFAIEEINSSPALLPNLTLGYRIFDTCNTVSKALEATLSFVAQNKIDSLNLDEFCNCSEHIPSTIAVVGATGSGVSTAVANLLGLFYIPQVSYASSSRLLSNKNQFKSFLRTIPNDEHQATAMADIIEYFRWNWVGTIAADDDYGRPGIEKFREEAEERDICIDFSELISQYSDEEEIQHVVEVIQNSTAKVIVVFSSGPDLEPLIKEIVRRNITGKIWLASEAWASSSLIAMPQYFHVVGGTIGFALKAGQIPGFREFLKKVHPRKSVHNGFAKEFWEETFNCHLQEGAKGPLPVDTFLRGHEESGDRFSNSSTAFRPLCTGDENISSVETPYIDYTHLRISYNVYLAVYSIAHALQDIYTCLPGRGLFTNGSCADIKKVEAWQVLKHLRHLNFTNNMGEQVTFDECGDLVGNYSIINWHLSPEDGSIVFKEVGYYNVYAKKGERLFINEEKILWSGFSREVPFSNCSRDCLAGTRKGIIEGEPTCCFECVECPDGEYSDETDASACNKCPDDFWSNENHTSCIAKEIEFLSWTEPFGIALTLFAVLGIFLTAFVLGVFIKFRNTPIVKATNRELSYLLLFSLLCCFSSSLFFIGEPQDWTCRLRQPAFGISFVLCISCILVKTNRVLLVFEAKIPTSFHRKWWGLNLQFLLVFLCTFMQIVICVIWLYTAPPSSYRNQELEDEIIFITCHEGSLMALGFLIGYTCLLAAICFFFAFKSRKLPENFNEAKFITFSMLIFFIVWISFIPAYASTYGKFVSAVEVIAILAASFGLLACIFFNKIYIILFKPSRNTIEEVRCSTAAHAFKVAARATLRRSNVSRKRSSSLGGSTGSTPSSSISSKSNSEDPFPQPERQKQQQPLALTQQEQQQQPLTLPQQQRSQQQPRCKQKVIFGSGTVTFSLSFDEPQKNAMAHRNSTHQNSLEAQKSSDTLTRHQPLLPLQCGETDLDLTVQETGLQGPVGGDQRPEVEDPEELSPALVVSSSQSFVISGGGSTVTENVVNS
Method: 293E Cells (EBNA1-expresion HEK293 cells, ATCC No. CRL-10852) were cultivated in DMEN/Ham's-F12 (3.15/mL glucose-containing Dulbecco's modified Eagle medium, available from Nakaraitesk Company) supplemented with 10% fetal calf serum, in the presence of 200 μg/mL of G418 (available from Genetisin). The cultured cells were inoculated in F25 flask at a density of 3×10^6 cells/10 mL, the flask was allowed to stand over 24 hours in a CO2 incubator (5% CO2, 37° C.), and then the human CaSR-expression plasmid hCaSR/pcDNA3.1 was transformed or transfected with a reagent for transfection Fugene6 (available from Roche Company). The transfected plasmid was maintained in a CO2 incubator for 6 to 7 hours, then the cells were recovered using a 10% fetal calf serum-containing DMEM/Ham's-F12 and the cells were inoculated in each well of a poly-D-lysine coat 96-well plate (BD-Biocoat) at a density of 70,000 cells/well.
To each well of the 96-well plate, each test compound was dissolved in a 0.1% BSA-containing Assay Buffer in an amount of 50 μl/well, and then any change of the intensity of fluorescence was monitored over 3 minutes using FLEX Station (available from Molecular Devices Company).
Method for the Determination of EC50:
The difference (RFU (Max-Min)) between the maximum and minimum fluorescent intensities observed for each well before and after the addition of each specific test compound was determined by the automatic calculation using FLEX Station. The activity rate was calculated while the RFU (Max-Min) value observed when adding the compound at the maximum concentration was defined to be 100% and the RFU (Max-Min) value observed when using the 0.1% BSA-containing Assay Buffer free of any test compound was defined to be 0%, followed by subjecting the resulting data to the curve-fitting procedures using the spreadsheet software Xfit or Graph-Pad-Prism to thus determine the EC50 which was the concentration of the compound at the activity rate of 50%.
In addition, the same EC50-determining procedures used above were repeated except for using other dipeptides as Comparative Examples.

[1] = Quantitative sensory evaluation test of kokumi-imparting activity; format: in vivo, human; details: n=4; for Intensity of kokumi, Initial Taste: scale control 0, strong 3, very strong 5
Method: This quantitative sensory evaluation test was carried out according to the following procedures: The intensity of the kokumi-imparting activity observed for each test compound was determined as a value observed when blending 0.00001 to 0.5 g/dL of the corresponding test compound with the distilled water containing sodium glutamate (0.05 g/dL), inosinic acid monophosphate (0.05 g/dL), and sodium chloride (0.5 g/dL). […] The evaluation criteria are assumed to be as follows: control: 0 point; strong: 3 points; very strong: 5 points. Moreover, to clarify the criteria, the initial taste and the middle/after taste of γ-Glu-Val-Gly were set at 3.0 points, respectively. The scoring or rating was carried out using the method of line scale and more specifically, it was carried out by writing each corresponding score on a straight line on which points corresponding to −5˜0˜5 had been indicated. The panelists used in this test were defined to be persons who had been engaged in the development of seasonings for foods over not less than one year of the cumulative time period and who could judge that the difference in the titer between γ-Glu-Cys-Gly and γ-Glu-Val-Gly added to a solution having umami/salty taste is about 10 times (while confirming the ability of these persons at regular intervals). The evaluation was carried out at n (the number of panelists used)=4. The term “initial taste” means the taste which develops from 0 to 2 seconds after the sample is placed in the panelist's mouth, while the term “middle/after taste” means the taste which develops thereafter.
In addition, γ-Glu-Val-Gly, γ-Glu-Cys, γ-Glu-Val, γ-Glu-Ala and γ-Glu-Ser were likewise inspected for their kokumi-imparting effect according to the same procedures used above.

[2] = 0.2 g/dL in water with MSG 0.05, IMP 0.05, NaCl 0.5 g/dL
[3] = 0.01 g/dL in umami/salty solution
[4] = 0.01 g/dL in water with MSG 0.05, IMP 0.05, NaCl 0.5 g/dL
[5] = 0.001 g/dL in water with MSG 0.05, IMP 0.05, NaCl 0.5 g/dL, reference set at 3.0

CCCC[C@H](NC(=O)CC[C@H](N)C(=O)O)C(=O)O [γ-Glu-Nle, γ-L-glutamyl-L-norleucine]
pEC50 (human CaSR): 5.36

N[C@@H](CCC(=O)N[C@@H](CO)C(=O)O)C(=O)O [γ-Glu-Ser]
Intensity of kokumi, Middle/After Taste [1, 2]: 3.0 points | Intensity of kokumi, Initial Taste [1, 2]: 3.6 points | pEC50 (human CaSR): 4.96

C[C@H](NC(=O)CC[C@H](N)C(=O)O)C(=O)O [γ-Glu-Ala]
Sensory Evaluation Profile ([1]; 0.2 g/dL in umami/salty solution): Mainly the tastes similar to the sour | Intensity of kokumi, Middle/After Taste [1, 2]: 4.3 points | Intensity of kokumi, Initial Taste [1, 2]: 4.5 points | pEC50 (human CaSR): 5.91

N[C@@H](CCC(=O)N[C@@H](CS)C(=O)O)C(=O)O [γ-Glu-Cys]
Sensory Evaluation Profile [1, 3]: Mainly the middle and after tastes | Intensity of kokumi, Middle/After Taste [1, 4]: 3.1 points | Intensity of kokumi, Initial Taste [1, 4]: 3.1 points | pEC50 (human CaSR): 6.80

C[C@@H](O)[C@H](NC(=O)CC[C@H](N)C(=O)O)C(=O)O [γ-Glu-Thr]
pEC50 (human CaSR): 5.16

CC(C)(C)[C@H](NC(=O)CC[C@H](N)C(=O)O)C(=O)O [γ-Glu-tLeu]
pEC50 (human CaSR): 5.51

CC[C@H](NC(=O)CC[C@H](N)C(=O)O)C(=O)O
pEC50 (human CaSR): 6.68

CC(C)(NC(=O)CC[C@H](N)C(=O)O)C(=O)O [γ-Glu-Aib]
pEC50 (human CaSR): 4.81

[γGlu]-Val-Gly
Intensity of kokumi, Middle/After Taste [1, 5]: 3.0 points | Intensity of kokumi, Initial Taste [1, 5]: 3.0 points

CC(C)[C@H](NC(=O)CC[C@H](N)C(=O)O)C(=O)O [γ-Glu-Val]
Sensory Evaluation Profile [1, 3]: The after taste was quite weak. | Intensity of kokumi, Middle/After Taste [1, 4]: 2.4 points | Intensity of kokumi, Initial Taste [1, 4]: 3.1 points | pEC50 (human CaSR): 5.99
